Results taken from paper PMC7382816 (BMC Pharmacology & Toxicology, 2020).
Like-named read-outs stand apart in the source and are kept apart here.

What was measured:
[1] = Single-dose pharmacokinetics in healthy volunteers under fasting and fed (high-fat breakfast) conditions, plasma concentrations by HPLC-MS, non-compartmental analysis; assay type: in vivo, human; design: Ke: unit not given here
Description: The bioequivalence clinical trials were phase I, randomized, open-label, crossover, single-centre, with two periods separated by a 7-day washout stage. Subjects were randomised to one of the two treatment sequences, RT or TR where R was the reference formulation and T was the test formulation. Each of the clinical trial was crossover for evaluation of a test formulation compared to a reference formulation either under fed or fasting conditions. […] The treatments were allocated in a balanced manner on every inclusion day (blocks of 4 subjects). Our study adheres to CONSORT guidelines. […] Sample processing, genotyping for CYP2C19 and drug quantification were performed according to Román et al. […] Pharmacokinetic parameters were estimated from the plasma concentration–time data by non-compartmental analysis (WinNonlin Professional, version 2.0., Pharsight Corporation, USA) as reported by Román et al. […] WinNonLin Professional software version 2.0 was used for the statistical analysis. Pharmacokinetic parameters were log-transformed, and AUC and Cmax were adjusted for dose and weight. The values of pharmacokinetic parameters were expressed as mean ± standard deviation.

[2] = review; ref [26] Swan et al.; cited from earlier work
[3] = Fed (high-fat breakfast), all subjects, single oral dose, mean ± SD
[4] = both sexes, human, plasma, oral, only CYP2C19*1/*1 subjects, Fast, men and women, mean ± SD
[5] = both sexes, human, plasma, oral, only CYP2C19*1/*1 subjects, Fed, men and women, mean ± SD
[6] = both sexes, human, plasma, po, Fast, all subjects, single oral dose, mean ± SD
[7] = both sexes, human, plasma, po, Fed (high-fat breakfast), all subjects, single oral dose, mean ± SD
[8] = female, human, plasma, oral, only CYP2C19*1/*1 subjects, Fast, women, mean ± SD
[9] = female, human, plasma, oral, only CYP2C19*1/*1 subjects, Fed, women, mean ± SD
[10] = female, human, plasma, po, Fast, women, single oral dose, mean ± SD
[11] = female, human, plasma, po, Fed, women, single oral dose, mean ± SD
[12] = male, human, plasma, oral, only CYP2C19*1/*1 subjects, Fast, men, mean ± SD
[13] = male, human, plasma, oral, only CYP2C19*1/*1 subjects, Fed, men, mean ± SD
[14] = male, human, plasma, po, Fast, men, single oral dose, mean ± SD
[15] = male, human, plasma, po, Fed, men, single oral dose, mean ± SD

Work on `COCCCOc1ccnc(C[S+]([O-])c2nc3ccccc3[nH]2)c1C` (centres unmarked) [Rabeprazole, rabeprazole] yielded a Ke ([1]; Fast, all subjects, single oral dose, mean ± SD) of 0.60 ± 0.20, a Ke ([1]; Fast, men, single oral dose, mean ± SD) of 0.64 ± 0.20 and a Ke ([1]; Fast, women, single oral dose, mean ± SD) of 0.56 ± 0.20. The Cmax [1, 3] was 675.8 ± 218.8 ng/mL, the Ke [1, 3] was 0.42 ± 0.22 and the Ke ([1]; Fed, men, single oral dose, mean ± SD) was 0.38 ± 0.17. It also gave a Ke ([1]; Fed, women, single oral dose, mean ± SD) of 0.48 ± 0.27, an AUC(0-inf) [1, 4] of 901 ± 235 ng·h/mL and a CL/F [1, 4] of 6.17 mL/min/kg. For the same compound, the Vd/F [1, 4] was 0.6 ± 0.11 L/kg, the half-life [1, 4] was 1.3 ± 0.6 h and the Cmax ([1]; both sexes, human, plasma, oral, only CYP2C19*1/*1 subjects, Fast, men and women, mean ± SD, read-out: Cmax) was 536 ± 138 ng/mL. It also gave a Tmax ([1]; both sexes, human, plasma, oral, only CYP2C19*1/*1 subjects, Fast, men and women, mean ± SD, read-out: Tmax) of 3.9 ± 0.8 h, an AUC(0-inf) [1, 5] of 969 ± 388 ng·h/mL and a CL/F [1, 5] of 6.33 mL/min/kg. It also gave a Vd/F [1, 5] of 0.92 ± 0.34 L/kg, a half-life [1, 5] of 2 ± 0.9 h and a Cmax ([1]; both sexes, human, plasma, oral, only CYP2C19*1/*1 subjects, Fed, men and women, mean ± SD, read-out: Cmax) of 606 ± 207 ng/mL. It also gave a Tmax ([1]; both sexes, human, plasma, oral, only CYP2C19*1/*1 subjects, Fed, men and women, mean ± SD, read-out: Tmax) of 9.1 ± 3.3 h, a Tmax ([1]; both sexes, human, plasma, oral, under fasting conditions, range among subjects, read-out: Tmax range) of 2 to 7 h and a Tmax ([1]; both sexes, human, plasma, oral, under fed conditions, range among subjects, read-out: Tmax range) of 3 to 20 h. It also gave an AUC(0-inf) [1, 6] of 972 ± 361 ng·h/mL, a CL/F [1, 6] of 5.83 mL/min/kg and a Vd/F [1, 6] of 0.6 ± 0.17 L/kg. The half-life [1, 6] was 1.3 ± 0.5 h, the Cmax ([1]; both sexes, human, plasma, po, Fast, all subjects, single oral dose, mean ± SD, read-out: Cmax) was 556 ± 176 ng/mL and the Tmax ([1]; both sexes, human, plasma, po, Fast, all subjects, single oral dose, mean ± SD, read-out: Tmax) was 3.7 ± 0.9 h. The AUC(0-inf) [1, 7] was 1050 ± 382 ng·h/mL, the CL/F [1, 7] was 5.67 mL/min/kg and the Vd/F [1, 7] was 0.91 ± 0.45 L/kg. For the same compound, the half-life [1, 7] was 2.2 ± 1.3 h, the Tmax ([1]; both sexes, human, plasma, po, Fed (high-fat breakfast), all subjects, single oral dose, mean ± SD, read-out: Tmax) was 7.2 ± 2.6 h and the “difference in AUC between men and women” value ([1]; effect of sex (CYP2C19*1/*1 subjects, fed conditions)) was “around 5%”. The “Cmax higher under fed conditions” value ([1]; fed vs fasting, all subjects) was 21%, the “Delay of mean Tmax (absorption) by food” value ([1]; fed vs fasting, all subjects) was “about 3.5 h” and the “half-life higher under fed conditions” value ([1]; fed vs fasting, all subjects) was 66%. For the same compound, the “Delay of Tmax by food” value ([1]; fed vs fasting, only subjects with CYP2C19*1/*1) was 5.2 h, the AUC(0-inf) [1, 8] was 932 ± 172 ng·h/mL and the CL/F [1, 8] was 6.83 mL/min/kg. The Vd/F [1, 8] was 0.61 ± 0.12 L/kg, the half-life [1, 8] was 1.1 ± 0.2 h and the Cmax ([1]; female, human, plasma, oral, only CYP2C19*1/*1 subjects, Fast, women, mean ± SD, read-out: Cmax) was 560 ± 136 ng/mL. It also gave a Tmax ([1]; female, human, plasma, oral, only CYP2C19*1/*1 subjects, Fast, women, mean ± SD, read-out: Tmax) of 3.8 ± 0.7 h, an AUC(0-inf) [1, 9] of 944 ± 470 ng·h/mL and a CL/F [1, 9] of 7.5 mL/min/kg. The Vd/F [1, 9] was 0.85 ± 0.32 L/kg, the half-life [1, 9] was 1.5 ± 0.9 h and the Cmax ([1]; female, human, plasma, oral, only CYP2C19*1/*1 subjects, Fed, women, mean ± SD, read-out: Cmax) was 634 ± 221 ng/mL. The Tmax ([1]; female, human, plasma, oral, only CYP2C19*1/*1 subjects, Fed, women, mean ± SD, read-out: Tmax) was 8.2 ± 0.6 h, the AUC(0-inf) [1, 10] was 1120 ± 361 ng·h/mL and the CL/F [1, 10] was 5.83 mL/min/kg. The Vd/F [1, 10] was 0.65 ± 0.2 L/kg, the half-life [1, 10] was 1.4 ± 0.5 h and the Cmax ([1]; female, human, plasma, po, Fast, women, single oral dose, mean ± SD, read-out: Cmax) was 638 ± 177 ng/mL. It also gave a Tmax ([1]; female, human, plasma, po, Fast, women, single oral dose, mean ± SD, read-out: Tmax) of 3.7 ± 0.9 h, an AUC(0-inf) [1, 11] of 1050 ± 420 ng·h/mL and a CL/F [1, 11] of 6.33 mL/min/kg. The Vd/F [1, 11] was 0.92 ± 0.37 L/kg, the half-life [1, 11] was 2 ± 1.3 h and the Cmax ([1]; female, human, plasma, po, Fed, women, single oral dose, mean ± SD, read-out: Cmax) was 728 ± 284 ng/mL. For the same compound, the Tmax ([1]; female, human, plasma, po, Fed, women, single oral dose, mean ± SD, read-out: Tmax) was 7.6 ± 2 h, the AUC(0-inf) [1, 12] was 870 ± 296 ng·h/mL and the CL/F [1, 12] was 5.5 mL/min/kg. For the same compound, the Vd/F [1, 12] was 0.59 ± 0.1 L/kg, the half-life [1, 12] was 1.5 ± 0.7 h and the Cmax ([1]; male, human, plasma, oral, only CYP2C19*1/*1 subjects, Fast, men, mean ± SD, read-out: Cmax) was 512 ± 147 ng/mL. The Tmax ([1]; male, human, plasma, oral, only CYP2C19*1/*1 subjects, Fast, men, mean ± SD, read-out: Tmax) was 3.9 ± 1 h, the AUC(0-inf) [1, 13] was 1000 ± 323 ng·h/mL and the CL/F [1, 13] was 5 mL/min/kg. It also gave a Vd/F [1, 13] of 1.02 ± 0.39 L/kg, a half-life [1, 13] of 2.5 ± 0.7 h and a Cmax ([1]; male, human, plasma, oral, only CYP2C19*1/*1 subjects, Fed, men, mean ± SD, read-out: Cmax) of 572 ± 215 ng/mL. For the same compound, the Tmax ([1]; male, human, plasma, oral, only CYP2C19*1/*1 subjects, Fed, men, mean ± SD, read-out: Tmax) was 10.3 ± 5.1 h, the AUC(0-inf) [1, 14] was 836 ± 313 ng·h/mL and the CL/F [1, 14] was 5.83 mL/min/kg. It also gave a Vd/F [1, 14] of 0.55 ± 0.11 L/kg, a half-life [1, 14] of 1.2 ± 0.5 h and a Cmax ([1]; male, human, plasma, po, Fast, men, single oral dose, mean ± SD, read-out: Cmax) of 479 ± 140 ng/mL. It also gave a Tmax ([1]; male, human, plasma, po, Fast, men, single oral dose, mean ± SD, read-out: Tmax) of 3.6 ± 0.9 h, an AUC(0-inf) [1, 15] of 1050 ± 361 ng·h/mL and a CL/F [1, 15] of 5.17 mL/min/kg. For the same compound, the Vd/F [1, 15] was 0.91 ± 0.52 L/kg, the half-life [1, 15] was 2.3 ± 1.3 h and the Cmax ([1]; male, human, plasma, po, Fed, men, single oral dose, mean ± SD, read-out: Cmax) was 635 ± 145 ng/mL. For the same compound, the Tmax ([1]; male, human, plasma, po, Fed, men, single oral dose, mean ± SD, read-out: Tmax) was 6.9 ± 3 h, the Ke ([1]; only CYP2C19*1/*1 subjects, Fast, men and women, mean ± SD) was 0.63 ± 0.20 and the Ke ([1]; only CYP2C19*1/*1 subjects, Fast, men, mean ± SD) was 0.57 ± 0.25. The Ke ([1]; only CYP2C19*1/*1 subjects, Fast, women, mean ± SD) was 0.68 ± 0.13, the Ke ([1]; only CYP2C19*1/*1 subjects, Fed, men and women, mean ± SD) was 0.45 ± 0.23 and the Ke ([1]; only CYP2C19*1/*1 subjects, Fed, men, mean ± SD) was 0.30 ± 0.11. For the same compound, the Ke ([1]; only CYP2C19*1/*1 subjects, Fed, women, mean ± SD) was 0.57 ± 0.25 and the “influence of co-ingestion of food on bioavailability” value [2] was “not influenced”.
